Results: patent US10168342B2, “Lipid probes and uses thereof” (THE SCRIPPS RESEARCH INSTITUTE, priority 2015, dated 2019)

Experiments:
Experiment in all cases: In situ competitive SILAC profiling with A-DA probe in (PMA-stimulated) A549 cells
Conditions in all cases: A549 cells, A-DA probe
[1] = molecular target: A-DA lipid probe targets in A549 cells (Homo sapiens, UniProt Q9NX47)
[2] = molecular target: T1, A-DA lipid probe targets in A549 cells (Homo sapiens, UniProt Q9HAW7)
T1 sequence (Q9HAW7 26-530): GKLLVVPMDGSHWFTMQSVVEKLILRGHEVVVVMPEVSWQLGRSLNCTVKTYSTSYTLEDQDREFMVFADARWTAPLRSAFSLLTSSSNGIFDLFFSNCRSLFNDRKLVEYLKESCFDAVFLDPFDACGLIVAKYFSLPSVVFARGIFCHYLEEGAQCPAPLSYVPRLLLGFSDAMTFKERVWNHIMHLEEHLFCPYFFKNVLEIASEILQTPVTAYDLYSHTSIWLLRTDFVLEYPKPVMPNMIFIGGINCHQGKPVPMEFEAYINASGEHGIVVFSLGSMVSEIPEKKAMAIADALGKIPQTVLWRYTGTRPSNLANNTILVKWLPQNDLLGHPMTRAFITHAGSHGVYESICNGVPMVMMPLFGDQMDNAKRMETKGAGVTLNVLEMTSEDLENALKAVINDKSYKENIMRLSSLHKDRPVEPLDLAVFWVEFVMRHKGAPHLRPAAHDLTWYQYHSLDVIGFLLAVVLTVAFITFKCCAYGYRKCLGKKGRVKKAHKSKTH

[3] = molecular target: T2, A-DA lipid probe targets in A549 cells (Homo sapiens, UniProt Q15738)
T2 sequence (Q15738 1-373): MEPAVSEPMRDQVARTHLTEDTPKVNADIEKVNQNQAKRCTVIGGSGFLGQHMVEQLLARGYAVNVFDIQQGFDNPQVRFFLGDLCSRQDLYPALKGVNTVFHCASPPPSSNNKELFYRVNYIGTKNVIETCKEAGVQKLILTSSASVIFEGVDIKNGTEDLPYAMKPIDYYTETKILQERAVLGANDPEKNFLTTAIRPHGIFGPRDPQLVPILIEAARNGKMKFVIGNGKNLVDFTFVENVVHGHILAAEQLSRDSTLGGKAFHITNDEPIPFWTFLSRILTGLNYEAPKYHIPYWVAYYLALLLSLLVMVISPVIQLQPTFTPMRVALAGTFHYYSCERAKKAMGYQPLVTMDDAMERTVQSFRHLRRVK

[4] = molecular target: A-DA lipid probe targets in A549 cells (Homo sapiens, UniProt Q9H6K4)
Chain of A-DA lipid probe targets in A549 cells (Homo sapiens, UniProt Q9H6K4) (Q9H6K4 whole entry): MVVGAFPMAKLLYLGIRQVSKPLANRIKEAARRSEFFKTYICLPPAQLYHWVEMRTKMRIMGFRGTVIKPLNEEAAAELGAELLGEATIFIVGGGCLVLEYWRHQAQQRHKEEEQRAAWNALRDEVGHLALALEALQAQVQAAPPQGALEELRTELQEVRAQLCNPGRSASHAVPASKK

[5] = molecular target: T3, A-DA lipid probe targets in A549 cells (Homo sapiens, UniProt O95470)
T3 sequence (O95470 1-568): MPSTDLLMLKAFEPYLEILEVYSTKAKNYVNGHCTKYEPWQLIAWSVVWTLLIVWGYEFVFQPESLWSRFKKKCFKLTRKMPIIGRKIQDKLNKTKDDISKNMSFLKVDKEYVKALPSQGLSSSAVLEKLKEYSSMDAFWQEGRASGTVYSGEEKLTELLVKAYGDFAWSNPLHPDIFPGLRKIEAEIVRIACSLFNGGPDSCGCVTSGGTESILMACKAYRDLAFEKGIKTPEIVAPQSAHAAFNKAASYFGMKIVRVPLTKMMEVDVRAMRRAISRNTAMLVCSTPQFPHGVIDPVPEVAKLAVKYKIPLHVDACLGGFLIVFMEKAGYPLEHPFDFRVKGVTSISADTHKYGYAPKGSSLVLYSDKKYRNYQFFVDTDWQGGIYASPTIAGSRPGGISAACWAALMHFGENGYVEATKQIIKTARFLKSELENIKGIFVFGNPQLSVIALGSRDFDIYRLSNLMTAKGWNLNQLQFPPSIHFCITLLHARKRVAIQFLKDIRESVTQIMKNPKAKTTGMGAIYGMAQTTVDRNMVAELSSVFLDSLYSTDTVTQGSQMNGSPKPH

[6] = molecular target: A-DA lipid probe targets in A549 cells (Homo sapiens, UniProt P21796)
Chain of A-DA lipid probe targets in A549 cells (Homo sapiens, UniProt P21796) (P21796 whole entry): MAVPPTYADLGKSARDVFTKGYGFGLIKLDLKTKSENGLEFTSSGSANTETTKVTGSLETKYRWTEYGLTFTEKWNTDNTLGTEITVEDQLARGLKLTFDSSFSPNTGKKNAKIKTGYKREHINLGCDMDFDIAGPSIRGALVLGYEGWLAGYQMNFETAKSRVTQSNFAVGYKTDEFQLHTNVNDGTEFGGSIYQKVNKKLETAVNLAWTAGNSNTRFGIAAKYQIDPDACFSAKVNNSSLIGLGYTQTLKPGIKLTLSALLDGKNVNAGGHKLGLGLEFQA

[7] = molecular target: T4, A-DA lipid probe targets in A549 cells (Homo sapiens, UniProt Q96G23)
T4 sequence (Q96G23 1-380): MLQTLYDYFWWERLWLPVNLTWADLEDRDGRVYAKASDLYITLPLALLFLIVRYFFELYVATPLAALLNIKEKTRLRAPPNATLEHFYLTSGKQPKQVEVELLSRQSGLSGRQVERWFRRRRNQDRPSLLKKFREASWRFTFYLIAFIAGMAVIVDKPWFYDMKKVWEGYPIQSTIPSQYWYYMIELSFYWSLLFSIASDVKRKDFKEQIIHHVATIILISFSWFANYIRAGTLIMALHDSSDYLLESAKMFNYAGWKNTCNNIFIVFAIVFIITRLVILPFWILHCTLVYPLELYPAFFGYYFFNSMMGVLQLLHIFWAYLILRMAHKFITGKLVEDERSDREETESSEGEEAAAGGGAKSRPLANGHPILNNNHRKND

Chain of A-DA lipid probe targets in A549 cells (Homo sapiens, UniProt Q9NX47) (Q9NX47 whole entry): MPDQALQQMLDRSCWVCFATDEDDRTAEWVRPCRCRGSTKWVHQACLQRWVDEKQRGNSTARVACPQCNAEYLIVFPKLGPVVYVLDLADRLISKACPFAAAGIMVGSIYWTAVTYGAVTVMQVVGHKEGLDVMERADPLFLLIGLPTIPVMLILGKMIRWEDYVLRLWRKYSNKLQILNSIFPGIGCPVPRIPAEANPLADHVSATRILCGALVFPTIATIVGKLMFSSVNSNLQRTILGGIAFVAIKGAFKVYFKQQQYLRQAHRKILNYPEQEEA

SMILES | SILAC ratio, MARCH5 (Q3KNM2) ([1]; competitor 25 μM) | SILAC ratio, UGT1A7 (Q9HAW7) ([2]; competitor 25 μM) | SILAC ratio, NSDHL (Q15738) ([3]; competitor 25 μM) | SILAC ratio, OPA3 (Q505D7) ([4]; competitor 25 μM) | SILAC ratio, SGPL1 (O95470) ([5]; competitor 25 μM) | SILAC ratio, VDAC1 (P21796) ([6]; competitor 25 μM) | SILAC ratio, CERS2 (Q924Z4) ([7]; competitor 25 μM) | SILAC ratio, MARCH5 (Q3KNM2) ([1]; competitor 5 μM) | SILAC ratio, UGT1A7 (Q9HAW7) ([2]; competitor 5 μM) | SILAC ratio, UGT1A7 (Q9HAW7) ([2]; competitor 50 μM) | SILAC ratio, NSDHL (Q15738) ([3]; competitor 5 μM) | SILAC ratio, NSDHL (Q15738) ([3]; competitor 50 μM) | SILAC ratio, OPA3 (Q505D7) ([4]; competitor 5 μM) | SILAC ratio, SGPL1 (O95470) ([5]; competitor 5 μM) | SILAC ratio, SGPL1 (O95470) ([5]; competitor 50 μM) | SILAC ratio, VDAC1 (P21796) ([6]; competitor 5 μM) | SILAC ratio, VDAC1 (P21796) ([6]; competitor 50 μM) | SILAC ratio, CERS2 (Q924Z4) ([7]; competitor 5 μM) | SILAC ratio, CERS2 (Q924Z4) ([7]; competitor 50 μM)
O=C(/C=C/c1cccnc1)NCCCCC1CCN(C(=O)c2ccccc2)CC1 [FK-866, reference compound] | 1.3 | 2.1 | 1.4 | 1.3 | 1.2 | 1.3 | 1.4 | – | – | – | – | – | – | – | – | – | – | – | –
C=CCN(C)CCCCCCOc1ccc(C(=O)c2ccc(Br)cc2)c(F)c1 [Ro488071] | – | – | – | – | – | – | – | 1.2 | 1.6 | 40.0 | 1.5 | 2.5 | 1.8 | 1.5 | 3.0 | 1.4 | 3.3 | 1.5 | 2.5
